The values below are quoted from earlier work in patent US8945630B2, “Method of producing and applications of composition of hypochlorous acid” (Aquilabs S.A., priority 2008, dated 2015).

For this data set the following is noted: at 25° C.

`OCl` [Hypochlorous acid]: the dissociation constant is reported as 2.9×10^−8.
